Laboratory results from patent publication US9376421B2, “Compounds and methods for myotonic dystrophy therapy” (The Board of Trustees of the University of Illinois, priority 2014, dated 2016).
“Also recorded” adds a separate entry of the source.

Tests used:
[1] = tested on: (CUG)16; assay: (CUG)16 cleavage screening gel assay; type: biochemical; conditions: ligand 100 μM, (CUG)16 100 nM, 12 h, pH 7.4, 37° C., EtBr stain
Experimental: FIG. 2. Cleavage screening gel. (CUG)16 (SEQ ID NO: 1) (100 nM) was incubated with ligands (100 μM) and (CUG)16 (SEQ ID NO: 1) (100 nM), 12 h, 37° C. The reaction mixture was loaded onto a 20% denaturing PAGE gel and RNA was detected by post-staining with EtBr.
The potential cleavage activity of 4-9 was screened using a simple gel shift assay with (CUG)16 (SEQ ID NO: 1). To screen the agents, each agent was incubated for 12 h with unlabeled (CUG)16 (SEQ ID NO: 1) at a final concentration of 100 μM at pH 7.4. The mixture was separated on an RNA denaturing gel and stained with EtBr (FIG. 2). No loss of (CUG)16 (SEQ ID NO: 1) intensity was observed upon treatment with 2, 7, or tris(2-aminoethyl)amine (10).
RNA was fast folded at 95° C. for 5 min, followed by placing in ice for 10 min. RNA with a final concentration of 100 nM was incubated with cleaving agents 100 μM (in screening assays) and with ligand 9 at different concentrations (5, 10, 50, 100 μM). The cleaving buffer was 50 mM Tris buffer (pH 7.4) containing 150 mM NaCl and 2 mM MgCl2. The final volume of the reaction mixture was 10 μL. The reaction was quenched by adding 8 μL of 8 M urea and 2 μL of RNA loading dye followed by heating at 95° C. for 5 min. The mixture was separated on a 20% RNA denaturing gel. For non-labeled RNA, the gel was stained with EtBr and observed under UV. […]

[2] = biological target: MBNL1-CUGexp complex; conditions: previously reported; cited from earlier work
[3] = tested on: SV40 terminator mRNA in i(CUG)480 larvae; assay: SV40 mRNA level in i(CUG)480 larvae (real-time PCR); type: in vivo, Drosophila; conditions: relative to actin RNA
[4] = tested on: DM1 Drosophila expressing i(CTG)480; assay: External eye assay in DM1 Drosophila; type: in vivo
Experimental: Drosophila lines were cultured in standard cornmeal medium supplemented with dry yeasts. […] The gmr-GAL4 and 24B-GAL4 lines were used to drive UAS transgene expression in eye and muscles respectively. Ligands 2 and 9 were dissolved in ddH2O and mixed with fly food. Genetic crosses were set up in drug-containing fly food at 21.5° C. for external eye assay, and at 25° C. for larval crawling assay and real-time PCR analysis.

[5] = tested on: Drosophila larvae expressing i(CUG)480; assay: Larval crawling assay in DM1 Drosophila; type: in vivo; conditions: 400 μM; untreated i(CUG)480 9 lines/min
Excerpt: To test the abilities of 2 and 9 to improve the locomotor behavior of Drosophila larvae, we used crawling assays (Nichols et al., J. Vis. Exp. 61, e3795 (2012); Lanson et al., Hum. Mol. Genet. 20, 2510-2523 (2011); Batlevi et al., Proc. Natl. Acad. Sci. U.S.A. 107, 742-747 (2010)). […] Those expressing i(CUG)480 (SEQ ID NO: 17) crossed only 9 lines/min (FIG. 9b). […] Importantly, the phenotypic improvement with both compounds was dose-dependent and 9 in all cases provided greater phenotypic reversal than did 2.
Drosophila lines were cultured in standard cornmeal medium supplemented with dry yeasts. Fly lines bearing UAS-(CTG)60 (SEQ ID NO: 5) and UAS-(CTG)480 (SEQ ID NO: 6) were kind gifts of Prof. Rubén Artero Allepuz (Universitat de València, Estudi General, Spain). The gmr-GAL4 and 24B-GAL4 lines were used to drive UAS transgene expression in eye and muscles respectively. Ligands 2 and 9 were dissolved in ddH2O and mixed with fly food. […]
Larval crawling assays were performed as described in Lanson et al (Hum. Mol. Genet. 20, 2510-2523 (2011)). […] The larvae were allowed to acclimate for a period of 1 min, and the total number of gridlines that the posterior end of the larvae passed in 1 min was determined Each set of experiment was repeated independently three times using larvae collected from separate genetic crosses.

[6] = tested on: cells; conditions: cited from earlier work
[7] = tested on: Drosophila bearing i(CUG)60; assay: Treatment of control Drosophila bearing i(CUG)60; conditions: in vivo
Excerpt: FIG. 15A-C. Rescuing disease phenotypes in DM1 Drosophila with ligands 2 and 9. […] The error bars represent the standard deviation of three independent experiments (“(CTG)60” is disclosed as SEQ ID NO: 5).

[8] = tested on: insulin receptor (IR) minigene splicing; conditions: DM1 model cell cultures; cited from earlier work

N=C(NCCCCNc1nc(N)nc(N)n1)c1ccc(C(=N)NCCCCNc2nc(N)nc(N)n2)cc1 [Ligand 2]
loss of (CUG)16 intensity (RNA cleavage) [1]: No loss | KI, inhibition of MBNL binding [2]: low micromolar | reduction of SV40 mRNA levels in i(CUG)480 larvae [3]: did not | disease phenotype in DM1 fly eyes at 200 μM ([4]; 200 μM): reversed the disease phenotype | neurodegenerative (glossy and rough-eye) phenotype ([4]; in fly food, 6 d): reversal of the disease phenotype but less effectively; also recorded: improved the neurodegeneration | average crawling speed [5]: ca. 13 lines/min | cell permeability / cell uptake [6]: better cell uptake | effects on larval locomotion and eyes of i(CUG)60 Drosophila [7]: no effects | rescue of splicing defect of IR minigene (earlier work) [8]: partially rescued
